Test results: article PMC11079024, “Identification of a family of species-selective complex I inhibitors as potential anthelmintics” (Nature Communications, 2024)
Several values for one entry are separate records, joined by “and”; a condition that tells them apart may be missing. Identical values can stand only once. Like-named read-outs stand apart in the source and are kept apart here.

Key:
[1] = test system: anthelmintic/nematicide-resistant C. elegans mutant strains; experiment: microbe, parasite or virus in culture; conditions: for LC50: Caenorhabditis elegans; for dose response data: mev-1 (tr355)
[2] = test system: adult H. polygyrus; experiment: microbe, parasite or virus in culture; format: cell-based, Heligmosomoides polygyrus; conditions: anaerobic, 24 hours after treatment; for killing at 10 µM: Heligmosomoides polygyrus, 24 h, adult H. polygyrus, affected = score equal to or lower than 1.5, read-out: Percent Worms Affected; for # of Worms Affected: worms with score equal to or lower than 1.5
Method in brief: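 Compounds at 10 µM were incubated 24 h with adult H. polygyrus at 37 °C under either aerobic conditions or an anaerobic atmosphere of 85% N2/10% CO2/5% H2. Two independent replicates; percentage of worms with manual motility score ≤1.5 (scale 0–3) reported.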

## Cc1nc2ccccc2n1Cc1ccc(Cl)cc1 [STK697993]
[1]; read-out: C. elegans Development & Viability LC50, acr-23(ok2804)
  LC50: 34.9 µM
[1]; read-out: C. elegans Development & Viability LC50, avr-14(ad1302), avr-15(ad1051), glc-1(pk54)
  LC50: 28.3 µM
[1]; read-out: C. elegans Development & Viability LC50, ben-1(e1880)
  LC50: 38.6 µM
[1]; read-out: C. elegans Development & Viability LC50, bre-1(ye4)
  LC50: 31.1 µM
[1]; read-out: C. elegans Development & Viability LC50, mev-1(tr355)
  LC50: 28.5 µM
[1]; read-out: C. elegans Development & Viability LC50, slo-1(js379)
  LC50: 16.1 µM
[1]; read-out: C. elegans Development & Viability LC50, unc-29(e193)
  LC50: 22.9 µM
[1]; concentration step 1 of 13 (c108)
  dose response data: 0.989 and 1.000
[1]; concentration step 4 of 13 (c111)
  dose response data: 0.994 and 1.000
[2]; replicate 1
  killing at 10 µM: 100%
  # of Worms Affected: 7
[2]; replicate 2
  killing at 10 µM: 33%
  # of Worms Affected: 2
